Laboratory results as given in patent US10155757B2, “Crystalline form of a JAK3 kinase inhibitor” (VECTURA LIMITED, priority 2015, dated 2018).

Test: Aerodynamic particle size distribution (APSD) by Next Generation Impactor (NGI), fine particle mass and its stability
Assay type: physicochemical
Details: 1000 μg dose load in 20 mg formulation, NGI 60 Lmin^−1, F1 device
Experimental: The aerodynamic particle size distribution (APSD) of the formulations was evaluated with the Next Generation Impactor (NGI) tested at a flow rate of 80 Lmin^−1 in the GyroHaler® device (Compound 1—Gentisic Acid) and 60 Lmin^−1 in the F1 device (Compound 1, Compound 1—Maleic Acid and Compound 1—Adipic Acid). One dose was collected for each NGI measurement. Compound 1 deposition on the NGI components was measured by a gradient high performance liquid Chromatography (HPLC) method with UV detection.
The co-crystals with adipic acid and maleic acid were tested in a Vectura unit dose device as disclosed in WO2010/086285, and the gentisic acid co-crystal was tested in a GyroHaler® device.

- Fine particle Mass (μg < 5 μm) (T = 0 w): 418.2 µg
- Fine particle Mass (μg < 5 μm) (T = 4 w): 450.7 µg
- Fine particle Mass (μg < 5 μm) (T = 12 w): 415.3 µg
Structure (SMILES): Cn1c(=O)n([C@H]2CCCN(C(=O)CC#N)C2)c2nc(-c3cnn4ccccc34)ccc21 [Compound 1, (S)-3-(3-(1-methyl-2-oxo-5-(pyrazolo[1,5-a]pyridine-3-yl)-1H-imidazo[4,5-b]pyridine-3(2H)-yl)piperidin-1-yl)-3-oxopropanenitrile]
